Ends that are not written are not given here.
Test system: STAT5
Test: HEK293T Stat5 reporter assay of FKBP switches lacking JAK-binding motifs or cytotail tyrosines (Example 3B)
Type: cell-based
Conditions: 5 hours post-treatment, compared to positive control FKBP switch TpoR(478-582)/IL7R(316-459), FIG. 5B
Description: To identify components essential for the inducible chimeric cytokine receptor to signal, we generated FKBP switches that lacked either the JAK-binding domains or tyrosine residues in the cytotail domain. Specifically, either one or both JAK-binding motifs from TpoR(478-582) were replaced with glycine linkers, or all or a single (i.e. Y449) tyrosine residue(s) in the IL7R(316-459) cytotail was mutated to phenylalanine. The term “switch” as used in the Example section refers to the inducible chimeric cytokine receptor. For example, an “FKBP switch” as used herein is an inducible chimeric cytokine receptor comprising FKBP as the dimerization domain.
A HEK293T cell reporter assay was used to test how each of these domains affected cytokine signaling. Briefly, 20,000 HEK293T cells were plated into each well of a poly-L-lysine-coated 96-well flat-bottom plate and allowed to adhere overnight. […] 24 hours after transfection, cells were either left untreated, or treated with the indicated concentrations of AP1903 (Apex Bio) diluted in serum-free media, and Stat reporter activity was determined 5 hours post-treatment using the Dual-Glo Luciferase Assay System (Promega). […]

IL7R(424-459; Y456F): FKBP switch (Example 16) cytotail said to abrogate Stat5 activity, used as comparator (GILTLNPVAQGQPILTSLGSNQEEAYVTMSSFFQNQ; also: FKBP switch fusion; UniProt P16871 424-459, looked up, variant Y456F)
AP1903-induced Stat5 reporter activity: abrogates Stat5 activity

Reference: US12163169B2, “Inducible chimeric cytokine receptors” (Allogene Therapeutics, Inc., priority 2018, dated 2024)
